From US20140335050A1, “METHODS, COMPOSITIONS, AND KITS FOR THE TREATMENT OF CANCER” (The General Hospital Corporation, priority 2011, published 2014)

system: MU89 melanoma cells; assay: Tumor cell/T cell co-culture IL-2 ELISA (Melan-A/MART-1 specific TCR Jurkat line J-TCR-M1 as responder); format: cell-based, human; conditions: ICCB Known Bioactives Library, 10 μM
Description: The assay relies on the use of an antigen-specific responder T cell line. […] The chosen TCR reacts specifically to a Melan-A/MART-1 decapeptide (26[…]35) presented by HLA-A2, with appropriate triggering of T cell activation. We then used a lentiviral vector system for transduction of this specific TCR into the J.RT3-T3.5 T cell line, a Jurkat cell derivative which fails to express endogenous surface TCR through a mutation in its beta chain.
We evaluated several candidate melanoma cell lines for the ability to stimulate the J-TCR-M1 cell line. Levels of Melan-A/MART-1 (determined by intracellular staining and flow cytometry) and corresponding levels of induced IL-2 (determined by coculture with J-TCR-M1 and IL-2 ELISA) were tested for different melanoma cell lines.
The 480 compounds were tested in six parallel 96 well plates. The first two columns (16 wells) of each plate were used for standards (8 wells), untreated controls (4 wells), and positive controls (4 wells). The other ten columns (80 wells) were used for testing compounds in separate wells. A100 μl aliquot containing 5×10^4 MU89 cells was added to wells that contained 0.1 μl of each test drug diluted in 50 μl of RPMI media. The plates were incubated with drug for 72 hours at 37° C. in a humidified incubator with 5% CO2. After 72 hours, each well received 2.5×10^4J-TCR-M1 cells in 50 μl medium, and then incubated a further 24 hours. At the conclusion of the 24 hour co-culture period, each plate was centrifuged to pellet the cells and 100 μl supernatant fluid was collected from each well and plated in a parallel 96 well flat bottom well for IL-2 ELISA assay.
Melanoma cells were treated with hits from the primary screen for three days prior to counting and plating for the coculture assay (cells were washed and resuspended in fresh medium that no longer contained the treatment agents during the co-culture). A100 μl volume of 5×10^5 cells/ml tumor cells were mixed with 50 μl of […] T cells in a 96-well V-bottom plate and incubated overnight (16-24 hours). Plates were centrifuged to pellet the cells and 100 μl of supernatant fluid was removed from each well for cytokine assay. To assess antigen-specific T cell responses, a final concentration of 3.33 μg/ml Melan-A/MART-1 peptide (26[…]35 (A27L from wild type)) was added to the co-culture.
The protocol for evaluation of the cytokine IL-2 was performed using a the BD OptEAI kit, human IL-2 ELISA set from BD Biosciences (San Diego, Calif.) following the manufacturer's recommendations. The absorbance 450 nm was read in a BioRad 3550 plate reader. A standard curve using known concentrations of IL-2 (from 500 to 8 pg/ml) was included in each ELISA plate. IL-2 levels for experimental samples (pg/ml) were calculated from the standard curve.
100 μl of 5×10^5 tumor cells/ml were mixed with 50 μl of T cells (at 5×10^5 cells/ml) in a 96-well V-bottom plate and incubated overnight (16-24 hours). Plates were centrifuged to pellet the cells and 120 μl of supernatant fluid was removed from each well for cytokine assay. To assess antigen-specific T cell responses, 3.33 μg/ml Melan-A/MART-1 peptide was added to the co-culture.
The protocols for evaluation of either IL-2 or IFN-gamma were similar, following the manufacturer's recommendations. A standard curve using known concentrations of each cytokine was included in each ELISA experiment. ELISA plates were coated with capture antibody and then washed with 1×PBS 0.5% Tween-20. Wells were blocked with 1×PBS 1% FBS for 1 hour and rewashed.

| SMILES | Outcome in the primary co-culture IL-2 screen (hit or not) |
| --- | --- |
| N#CC(=C(/N)Sc1ccccc1N)/C(C#N)=C(\N)Sc1ccccc1N [U0126] | failed to be identified |
| CC[C@@]1(O)C(=O)OCc2c1cc1n(c2=O)Cc2cc3ccccc3nc2-1 [camptothecin] | failed to be identified |
| COc1cccc(-c2cc(=O)c3ccccc3o2)c1N [PD98059] | failed to be identified |
| COc1cc([C@@H]2c3cc4c(cc3[C@@H](O[C@@H]3O[C@@H]5CO[C@@H](C)O[C@H]5[C@H](O)[C@H]3O)[C@H]3COC(=O)[C@H]23)OCO4)cc(OC)c1O [etoposide] | failed to be identified |
| COc1cccc2c1C(=O)c1c(O)c3c(c(O)c1C2=O)C[C@@](O)(C(C)=O)C[C@@H]3O[C@H]1C[C@H](N)[C@H](O)[C@H](C)O1 [daunorubicin] | interferes with the direct co-culture assay |
| COc1cccc2c1C(=O)c1c(O)c3c(c(O)c1C2=O)C[C@@](O)(C(=O)CO)C[C@@H]3O[C@H]1C[C@H](N)[C@H](O)[C@H](C)O1 [doxorubicin] | failed to be identified |

same assay, conditions: about 10 μM, 72 hours treatment, then 24 hours co-culture

| SMILES | Fold increase (IL-2 relative to untreated controls), hits from pilot screen |
| --- | --- |
| COc1ccc(Cl)cc1C(=O)NCCc1ccc(S(=O)(=O)NC(=O)NC2CCCCC2)cc1 [Glyburide] | 2.6 fold |
| COc1c(C=O)c(O)cc2c1C(=O)c1ccccc1C2=O [Damnacanthal] | 2.1 fold |
| Fc1ccc(C(c2ccc(F)cc2)N2CCN(C/C=C/c3ccccc3)CC2)cc1 [Flunarizine] | 11.9 fold |
| CCCCCCCCCCCCCCCCCCc1ccc(C(=O)C=CC(=O)O)cc1 [OBAA, 3-(4-octadecyl)benzoylacrylic acid] | 5.9 fold |
| O=C1CN(/N=C/c2ccc(-c3ccc([N+](=O)[O-])cc3)o2)C(O)=N1 [Dantrolene] | 2.4 fold |
